# Data: patent US20240208992A1, “MACROCYCLES AS CFTR MODULATORS” (Idorsia Pharmaceuticals Ltd, priority 2021, published 2024)
# Biological target: human F508del-CFTR (Homo sapiens, UniProt P13569, DEL508-508)
# Assay: F508del-CFTR cell surface expression (corrector activity), DiscoveRx ß-galactosidase complementation chemiluminescence assay in recombinant U2OS cell line;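 also: U2OS cells co-expressing ProLink-tagged F508del-CFTR and a membrane-anchored enzyme acceptor, where more surface CFTR restores β-galactosidase activity measured by chemiluminescence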
# Conditions: for EC50: EC50, F508del-CFTR cell surface expression; for Emax: U2OS
# [1] = U2OS cells, 16h compound incubation, geomean values
# [2] = in relation to Emax of corrector lumacaftor (=100%), arithmetic mean values
# [3] = U2OS cells, 16h compound incubation, geomean of several measurements
# [4] = in relation to the Emax of the corrector lumacaftor (=100%), U2OS cells, 16h compound incubation, arithmetic mean
# [5] = U2OS cell line, 16h compound incubation, geomean values
# [6] = in relation to the Emax of the corrector lumacaftor (=100%), U2OS cell line, 16h compound incubation, arithmetic mean values
# Sequence of human F508del-CFTR (P13569 with tags, fused parts or gaps DEL508-508): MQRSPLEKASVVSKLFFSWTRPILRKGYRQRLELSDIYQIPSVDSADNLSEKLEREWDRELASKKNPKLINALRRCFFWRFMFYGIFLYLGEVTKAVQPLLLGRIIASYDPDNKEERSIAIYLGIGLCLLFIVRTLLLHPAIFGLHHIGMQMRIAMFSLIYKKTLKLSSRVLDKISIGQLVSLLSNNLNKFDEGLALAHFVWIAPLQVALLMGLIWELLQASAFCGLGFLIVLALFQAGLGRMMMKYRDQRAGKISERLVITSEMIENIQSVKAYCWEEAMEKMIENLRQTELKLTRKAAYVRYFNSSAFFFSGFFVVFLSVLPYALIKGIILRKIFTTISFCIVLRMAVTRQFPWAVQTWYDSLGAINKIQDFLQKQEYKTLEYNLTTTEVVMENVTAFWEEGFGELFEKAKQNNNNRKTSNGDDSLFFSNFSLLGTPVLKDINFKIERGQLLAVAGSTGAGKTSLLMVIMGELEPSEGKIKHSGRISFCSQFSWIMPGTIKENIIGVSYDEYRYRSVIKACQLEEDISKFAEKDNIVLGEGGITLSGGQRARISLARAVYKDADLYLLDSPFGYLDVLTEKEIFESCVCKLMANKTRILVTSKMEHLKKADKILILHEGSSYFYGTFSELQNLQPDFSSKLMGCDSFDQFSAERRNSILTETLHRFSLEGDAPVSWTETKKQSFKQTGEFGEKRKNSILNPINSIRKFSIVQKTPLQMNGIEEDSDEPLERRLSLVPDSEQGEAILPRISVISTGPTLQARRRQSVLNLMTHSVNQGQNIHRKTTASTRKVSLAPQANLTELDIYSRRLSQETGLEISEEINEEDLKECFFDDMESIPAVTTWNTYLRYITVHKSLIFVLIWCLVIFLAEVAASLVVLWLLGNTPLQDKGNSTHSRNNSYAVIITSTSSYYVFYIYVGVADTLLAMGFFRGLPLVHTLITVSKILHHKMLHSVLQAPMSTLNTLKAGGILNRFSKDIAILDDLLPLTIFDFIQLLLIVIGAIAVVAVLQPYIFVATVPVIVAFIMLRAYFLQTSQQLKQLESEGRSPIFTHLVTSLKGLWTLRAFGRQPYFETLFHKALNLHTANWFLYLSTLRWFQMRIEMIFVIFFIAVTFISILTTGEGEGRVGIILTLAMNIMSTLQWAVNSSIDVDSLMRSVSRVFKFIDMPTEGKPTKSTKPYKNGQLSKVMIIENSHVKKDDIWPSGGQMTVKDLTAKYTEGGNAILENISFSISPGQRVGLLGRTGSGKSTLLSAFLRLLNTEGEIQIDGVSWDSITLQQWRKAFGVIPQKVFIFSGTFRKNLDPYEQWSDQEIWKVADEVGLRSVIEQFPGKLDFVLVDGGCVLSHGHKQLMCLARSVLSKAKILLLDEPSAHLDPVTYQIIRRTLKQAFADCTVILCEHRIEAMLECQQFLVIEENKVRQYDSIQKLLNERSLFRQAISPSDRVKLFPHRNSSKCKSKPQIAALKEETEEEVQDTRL
SMILES,EC50 [1],Emax [2],other results
"COc1cccc(CCNC(=O)[C@@H]2CC(=O)N(C)[C@@H](CC(C)C)C(=O)N3CCOC[C@@H]3C(=O)N[C@H](Cc3ccccc3)COc3ccc4c(cnn4C)c3C(=O)N2)c1 [Example 424, (8S,12S,18aR,21R)-21-benzyl-12-isobutyl-N-(3-methoxyphenethyl)-3,11-dimethyl-6,10,13,19-tetraoxo-6,7,8,9,10,11,12,13,15,16,18,18a,19,20,21,22-hexadecahydro-3H-[1,4]oxazino[3′,4′:6,7][1]oxa[4,7,10,14]tetraazacycloheptadecino[16,17-e]indazole-8-carboxamide]",0.831 µM,235%,–
"COc1cccc(CCNC(=O)[C@@H]2CC(=O)N(C)[C@@H](CC(C)C)C(=O)N(CCC3CCCCC3)CC(=O)N[C@H](Cc3ccccc3)COc3ccncc3C(=O)N2)c1 [Example 590, (3R,9S,13S)-3-benzyl-7-(2-cyclohexylethyl)-9-isobutyl-N-(3-methoxyphenethyl)-10-methyl-5,8,11,15-tetraoxo-2,3,4,5,6,7,8,9,10,11,12,13,14,15-tetradecahydropyrido[3,4-p][1]oxa[4,7,10,14]tetraazacycloheptadecine-13-carboxamide]",0.362 µM,201%,–
"Cc1cc(CCNC(=O)[C@@H]2CC(=O)N(C)[C@@H](CC(C)C)C(=O)N3CCN(CC(C)C)C[C@H]3C(=O)N[C@H](Cc3ccccc3)COc3ccc4nc(C)oc4c3C(=O)N2)on1 [Example 621, (8S,12S,18aS,21R)-21-benzyl-12,17-diisobutyl-4,11-dimethyl-N-(2-(3-methylisoxazol-5-yl)ethyl)-6,10,13,19-tetraoxo-6,7,8,9,10,11,12,13,16,17,18,18a,19,20,21,22-hexadecahydro-15H-oxazolo[4′,5′:5,6]benzo[1,2-p]pyrazino[2,1-f][1]oxa[4,7,10,14]tetraazacycloheptadecine-8-carboxamide]",0.339 µM,288%,–
"Cc1cc2c(c3cccnc13)C(=O)N[C@H](C(=O)NCCn1nnc(C3CC3)n1)CC(=O)N(C)[C@@H](CC(C)C)C(=O)N(C)[C@H](Cc1nc(C(F)(F)F)no1)C(=O)N[C@H](Cc1ccccc1)CO2 [Example 923, (3S,7S,10R,13R)-13-benzyl-N-(2-(5-cyclopropyl-2H-tetrazol-2-yl)ethyl)-7-isobutyl-6,9,17-trimethyl-1,5,8,11-tetraoxo-10-((3-(trifluoromethyl)-1,2,4-oxadiazol-5-yl)methyl)-1,2,3,4,5,6,7,8,9,10,11,12,13,14-tetradecahydro-[1]oxa[4,7,10,14]tetraazacycloheptadecino[16,17-f]quinoline-3-carboxamide]",–,–,EC50 [3]: 0.026 µM; Emax [4]: 500%
"Cc1cc(CCNC(=O)[C@@H]2CC(=O)N(C)[C@@H](CC(C)C)C(=O)N3CCN(CC(C)C)C[C@@H]3C(=O)N[C@H](Cc3ccccc3)COc3ccc4ccccc4c3C(=O)N2)on1 [Example 617, (4aR,7R,18S,22S)-7-benzyl-3,22-diisobutyl-21-methyl-N-(2-(3-methylisoxazol-5-yl)ethyl)-5,16,20,23-tetraoxo-2,3,4,4a,5,6,7,8,16,17,18,19,20,21,22,23-hexadecahydro-1H-naphtho[1,2-p]pyrazino[2,1-f][1]oxa[4,7,10,14]tetraazacycloheptadecine-18-carboxamide]",0.075 µM,318%,–
"CCN1C(=O)C[C@@H](C(=O)NCCc2cc(C)no2)NC(=O)c2c(cnc3ccccc23)OC[C@@H](Cc2ccccc2)NC(=O)[C@H]2CCCCN2C(=O)[C@@H]1CC(C)C [Example 506, (9S,13S,19aR,22R)-22-benzyl-12-ethyl-13-isobutyl-N-(2-(3-methylisoxazol-5-yl)ethyl)-7,11,14,20-tetraoxo-7,8,9,10,11,12,13,14,17,18,19,19a,20,21,22,23-hexadecahydro-16H-pyrido[2′,1′:6,7][1]oxa[4,7,10,14]tetraazacycloheptadecino[17,16-c]quinoline-9-carboxamide]",0.318 µM,211%,–
"CC(C)C[C@H]1C(=O)N2CCCC[C@H]2C(=O)N[C@H](Cc2ccccc2)COc2cnc3ccccc3c2C(=O)N[C@H](C(=O)NCCc2cccc(-n3nccn3)c2)CC(=O)N1C [Example 462, (9S,13S,19aS,22R)-N-(3-(2H-1,2,3-triazol-2-yl)phenethyl)-22-benzyl-13-isobutyl-12-methyl-7,11,14,20-tetraoxo-7,8,9,10,11,12,13,14,17,18,19,19a,20,21,22,23-hexadecahydro-16H-pyrido[2′,1′:6,7][1]oxa[4,7,10,14]tetraazacycloheptadecino[17,16-c]quinoline-9-carboxamide]",0.345 µM,130%,–
"COc1noc(CCNC(=O)[C@@H]2CC(=O)N(C)[C@@H](CC(C)C)C(=O)N(C)[C@H](CC(F)(F)F)C(=O)N[C@H](Cc3ccccc3)COc3cc(C)nc(OC)c3C(=O)N2)n1 [Example 942, (3R,6R,9S,13S)-3-benzyl-9-isobutyl-16-methoxy-N-(2-(3-methoxy-1,2,4-oxadiazol-5-yl)ethyl)-7,10,18-trimethyl-5,8,11,15-tetraoxo-6-(2,2,2-trifluoroethyl)-2,3,4,5,6,7,8,9,10,11,12,13,14,15-tetradecahydropyrido[3,4-p][1]oxa[4,7,10,14]tetraazacycloheptadecine-13-carboxamide]",–,–,EC50 [3]: 0.194 µM; Emax [4]: 460%
"CC(C)C[C@H]1C(=O)N(C)CC(=O)N[C@H](Cc2ccccc2)COc2cc3c(cc2C(=O)N[C@H](C(=O)NCCc2ccc4c(c2)OCCCO4)CC(=O)N1C)OCO3 [Example 101, (7R,13S,17S)-7-benzyl-N-(2-(3,4-dihydro-2H-benzo[b][1,4]dioxepin-7-yl)ethyl)-13-isobutyl-11,14-dimethyl-9,12,15,19-tetraoxo-6,7,8,9,10,11,12,13,14,15,16,17,18,19-tetradecahydro-[1,3]dioxolo[4′,5′:4,5]benzo[1,2-p][1]oxa[4,7,10,14]tetraazacycloheptadecine-17-carboxamide]",–,–,EC50 [5]: 0.201 µM; Emax [6]: 163%
"COc1cccc(CCNC(=O)[C@@H]2CC(=O)N(C)[C@@H](CC(C)C)C(=O)N3CCOC[C@@H]3C(=O)N[C@H](Cc3ccccc3)COc3ccc4ccccc4c3C(=O)N2)c1 [Example 222, (4aR,7R,18S,22S)-7-Benzyl-22-isobutyl-N-(3-methoxyphenethyl)-21-methyl-5,16,20,23-tetraoxo-1,2,4,4a,5,6,7,8,16,17,18,19,20,21,22,23-hexadecahydronaphtho[1,2-p][1,4]oxazino[3,4-f][1]oxa[4,7,10,14]tetraazacycloheptadecine-18-carboxamide]",–,–,EC50 [5]: 0.216 µM; Emax [6]: 249%
"COc1cccc2c1C(=O)N[C@H](C(=O)NCCc1ccc(N(C)C)cc1)CC(=O)N(C)[C@@H](CC(C)C)C(=O)N(CCC1CCCCC1)CC(=O)N[C@H](Cc1ccccc1)CO2 [Example 203, (3R,9S,13S)-3-benzyl-7-(2-cyclohexylethyl)-N-(4-(dimethylamino)phenethyl)-9-isobutyl-16-methoxy-10-methyl-5,8,11,15-tetraoxo-2,3,4,5,6,7,8,9,10,11,12,13,14,15-tetradecahydrobenzo[p][1]oxa[4,7,10,14]tetraazacycloheptadecine-13-carboxamide]",–,–,EC50 [5]: 0.183 µM; Emax [6]: 134%
